Measurements as given in PubChem BioAssay (NCI).
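The compound was tested at five concentrations on cells cultured in 96-well plates, with a 48-hour exposure period. The concentration for 50% growth inhibition is given as GI50. TGI: concentration producing complete growth inhibition.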

Key:
Test in all cases: NCI anticancer screen, dose series, 48 h
[1] = tested on: SR leukemia
[2] = tested on: COLO 205 colon
[3] = tested on: SNB-75 CNS
[4] = tested on: A549 NSCLC
[5] = tested on: SK-MEL-28 melanoma
[6] = tested on: RXF 393 renal
[7] = tested on: LOX IMVI melanoma
[8] = tested on: HOP-18 NSCLC
[9] = tested on: CCRF-CEM leukemia
[10] = tested on: BT-549 breast

Row | SMILES | TGI [1] | TGI [2] | TGI [3] | TGI [4] | TGI [5] | TGI [6] | TGI [7] | TGI [8] | TGI [9] | GI50 [2] | GI50 [3] | GI50 [4] | GI50 [5] | GI50 [6] | GI50 [7] | GI50 [8] | GI50 [9] | TGI [10] | GI50 [1]
1 | Nc1nc(SCc2ccccc2Cl)c2ncn(C3OC(CO)C(O)C3O)c2n1 (centres undefined) | > 100 µM | > 100 µM | 98.2 µM | > 100 µM | > 100 µM | > 100 µM | > 100 µM | > 100 µM | > 100 µM |  |  |  |  |  |  |  |  |  | 
2 | [CH3][Sn]([CH3])([CH3])[S]C(=S)N1CCOCC1 |  | 0.432 µM | > 31.4 µM | > 92.7 µM | 33.6 µM |  | 6.75 µM | > 100 µM | 1.67 µM | 0.0786 µM | 3.34 µM | 1.07 µM | 3.49 µM | 0.7 µM | 1.39 µM | 3.85 µM | 70.1 nM |  | 
3 | C/C(=C\C(=O)Nc1ccc2n[nH]nc2c1)Nc1ccc2n[nH]nc2c1 | > 100 µM | > 100 µM | > 100 µM | > 100 µM | > 100 µM | > 100 µM | > 100 µM | > 100 µM | > 100 µM |  |  |  |  |  |  |  |  |  | 
4 | Cc1c2cc[n+](Cc3ccc(I)cc3)cc2c(C)c2c1[nH]c1ccccc12 |  | 6.16 µM | 1.58 µM | > 25 µM | 11.7 µM | > 25 µM | > 25 µM | > 13.2 µM | 9.51 µM |  |  |  |  |  |  |  |  |  | 
5 | CCOC(=O)[C@@]12C[C@](/C=C/OC)(O[Si](C)(C)C)[C@@]13c1cc(OC)c(OC)cc1CCN3C(=O)C2=O | > 100 µM | > 100 µM | > 100 µM | > 100 µM | > 100 µM | > 100 µM | > 100 µM |  | > 100 µM |  |  |  |  |  |  |  |  | > 100 µM | 
6 | Cc1ccc(C(=O)N/N=C(\N=Nc2ccc([N+](=O)[O-])cc2)c2ccc(N(CCC#N)CCC#N)cc2C)cc1 | > 100 µM | > 100 µM | > 100 µM | > 100 µM | > 100 µM | 50.9 µM | > 100 µM |  | > 100 µM |  |  |  |  |  |  |  |  | > 100 µM | 
7 | COC(=O)/C=C(C)/C=C\COC1CCCCO1 (centres undefined) | > 100 µM | > 100 µM | > 100 µM | > 100 µM | > 100 µM | > 100 µM | > 100 µM |  | > 100 µM |  |  |  |  |  |  |  |  | > 100 µM | 
8 | Nc1nc(Cl)c(CO)c(NCC2(CO)CCC2)n1 | > 100 µM | > 100 µM | > 100 µM | > 100 µM | > 100 µM | > 100 µM | > 100 µM |  | > 100 µM |  |  |  |  |  |  |  |  | > 100 µM | 
9 | O=C1c2cc3c(cc2NC(c2ccccc2F)C1O)OCO3 (centres undefined) | > 37.9 µM | > 39.8 µM | 56.9 µM | > 63.1 µM | > 79.4 µM | > 64.9 µM | > 100 µM |  | 97.7 µM |  |  |  |  |  |  |  |  | > 100 µM | 
10 | CC(=O)O[C@H]1[C@@H](N2CCOCC2)C[C@H]2[C@@H]3CC=C4C[C@@H](N5CCCC5)CC[C@]4(C)[C@H]3CC[C@@]21C | 83.7 µM | > 100 µM | > 100 µM | > 100 µM | > 100 µM | > 100 µM | > 100 µM |  | > 100 µM |  |  |  |  |  |  |  |  | > 100 µM | 
11 | CC(=O)OCC1OC(OCCCOP(=O)(OCCC#N)OCC2OC(n3cnc4c(N)ncnc43)C(OC(=O)c3ccccc3)C2OC(=O)c2ccccc2)C(OC(C)=O)C(OC(C)=O)C1OC(C)=O (centres undefined) | > 100 µM | > 100 µM | > 100 µM | > 100 µM | > 100 µM | > 100 µM | > 100 µM |  | > 100 µM |  |  |  |  |  |  |  |  | > 100 µM | 
12 | COc1ccc(-c2nc3ccccc3c(=O)[nH]2)cc1 | > 100 µM | > 100 µM | 84.9 µM | > 100 µM | > 100 µM | > 100 µM | > 100 µM |  | > 100 µM |  |  |  |  |  |  |  |  | > 100 µM | 
13 | Cc1nn2c(=O)c([N+](=O)[O-])c(/C=C/c3ccc(F)cc3)nc2s1 | 16.5 µM | 16.7 µM | 31.3 µM | 24.3 µM | 19.7 µM | 10.7 µM | 9.19 µM |  | 23.5 µM |  |  |  |  |  |  |  |  | 18.8 µM | 
14 | CSc1c(C(C)=O)c(O)n(-c2ccc(C)cc2)c(=O)c1C#N | > 100 µM | > 100 µM | > 100 µM | > 100 µM | > 100 µM | > 100 µM | > 100 µM |  | > 100 µM |  |  |  |  |  |  |  |  | > 100 µM | 
15 | Oc1c(Br)cc2c(c1Br)-c1c(c(O)c3c4c1=NCCC=4C=N3)NCC2 |  | 11.7 µM | 34.5 µM | > 80.8 µM | 32.5 µM | 28.7 µM | 20.9 µM | 35.6 µM | 9.49 µM |  |  |  |  |  |  |  |  |  | 
16 | N#C[S-].[La+3].c1ccc(-c2ccccn2)nc1.c1ccc(-c2ccccn2)nc1.c1ccc(-c2ccccn2)nc1 | > 100 µM | > 100 µM | > 100 µM | > 100 µM | > 100 µM | 84.7 µM | 68.3 µM | > 100 µM |  | 45.5 µM | 25.9 µM | 28.6 µM | 30.9 µM | 22.5 µM | 7.3 µM | 27.1 µM |  |  | 34.2 µM
17 | COc1cc(/C=C(\C)[N+](=O)[O-])cc(OC)c1 | 7.04 µM | 20.1 µM | 31.8 µM | 61.5 µM | 33.2 µM | 13.1 µM | 11.9 µM |  | 5.77 µM |  |  |  |  |  |  |  |  | 33.6 µM | 
18 | COC(=O)[C@@H]1c2c(oc3cc(CO)cc(O)c3c2=O)C=C[C@H]1O | > 100 µM | 29 µM | 31.7 µM | 34.1 µM | 18.1 µM | 10.1 µM | 12.4 µM |  | 25 µM |  |  |  |  |  |  |  |  | 12.4 µM | 
19 | NCCCN(CCCCN(CCCN)CCCc1ccccc1)CCCc1ccccc1 | 7.19 µM | 3.18 µM | 5.04 µM | 9.49 µM | 2.98 µM | 5.64 µM | 6.38 µM |  | 7.83 µM |  |  |  |  |  |  |  |  | 10.1 µM | 
20 | CCOC(=O)C(O)(CC1=NC(C(=O)OC)(C(=O)OC)C(c2cccc(C=O)c2)O1)C(=O)OCC (centres undefined) | > 100 µM | > 100 µM | > 100 µM | > 100 µM | > 100 µM | > 100 µM | > 100 µM |  | > 100 µM |  |  |  |  |  |  |  |  | > 100 µM | 
21 | Cc1ccc(C2=CC(=O)/C(=C\C(=O)c3ccc(Br)cc3)O2)c(C)c1 | 12.6 µM | 14.3 µM | 28.2 µM | 48.4 µM | 40.1 µM | 14.1 µM | > 21.1 µM |  | > 100 µM |  |  |  |  |  |  |  |  | 16.2 µM | 
22 | Cc1nc2ccc(NCCN(C)C)c3c(=O)c4ccccc4n1c23 | 10.6 µM | 11.8 µM | 17.8 µM | 6.42 µM | 21 µM | 22.9 µM | 2.96 µM | 51.2 µM | 47.5 µM |  |  |  |  |  |  |  |  | 23.6 µM | 
23 | O=C(NNC(=O)c1ccco1)c1ccco1 | > 100 µM | > 100 µM | > 100 µM | > 100 µM | > 100 µM | > 100 µM | > 100 µM |  | > 100 µM |  |  |  |  |  |  |  |  | > 100 µM | 
